How the values were obtained:
[1] = test system: Mediterranean Fruitfly (Ceratitis capitata); experiment: Mediterranean fruitfly microtiter plate diet test; settings: 120 h, read-out: mortality in comparison with untreated controls
[2] = test system: Green Peach Aphid (Myzus persicae); experiment: Green peach aphid systemic test on artificial diet in microtiter plates; assay type: in vivo; settings: 72 h, adult aphids on treated artificial diet, 3 days, read-out: mortality in comparison with untreated controls
Source text: B.2 Green Peach Aphid (Myzus persicae)
For evaluating control of green peach aphid (Myzus persicae) through systemic means the test unit consisted of 96-well-microtiter plates containing liquid artificial diet under an artificial membrane.
The compounds were formulated using a solution containing 75% v/v water and 25% v/v DMSO. Different concentrations of formulated compounds were pipetted into the aphid diet, using a custom built pipetter, at two replications.
After application, 5-8 adult aphids were placed on the artificial membrane inside the microtiter plate wells. The aphids were then allowed to suck on the treated aphid diet and incubated at about 23±1° C. and about 50±5% relative humidity for 3 days. Aphid mortality and fecundity was then visually assessed.

[3] = test system: Tobacco Budworm (Heliothis virescens); experiment: Tobacco budworm microtiter plate diet test; assay type: in vivo; settings: 120 h, sprayed onto insect diet with eggs, egg and larval mortality after 5 days, read-out: mortality in comparison with untreated controls
Protocol: B.5 Tobacco Budworm (Heliothis virescens)
For evaluating control of tobacco budworm (Heliothis virescens) the test unit consisted of 96-well-microtiter plates containing an insect diet and 15-25 H. virescens eggs. The compounds were formulated using a solution containing 75% v/v water and 25% v/v DMSO. Different concentrations of formulated compounds were sprayed onto the insect diet at 10 μl, using a custom built micro atomizer, at two replications.
After application, microtiter plates were incubated at about 28±1° C. and about 80±5% relative humidity for 5 days. Egg and larval mortality was then visually assessed.

[4] = test system: Diamond Back Moth (Plutella xylostella); experiment: Diamond back moth leaf-dip test; assay type: in vivo; settings: cabbage leaves dipped, 3rd instar larvae, 72 hours after treatment, read-out: mortality in comparison with untreated controls
Protocol: B.1 Diamond Back Moth (Plutella xylostella)
The active compound was dissolved at the desired concentration in a mixture of 1:1 (vol:vol) distilled water:aceteone. Surfactant (Kinetic HV) was added at a rate of 0.01% (vol/vol). The test solution was prepared at the day of use.
Leaves of cabbage were dipped in test solution and air-dried. Treated leaves were placed in petri dishes lined with moist filter paper and inoculated with ten 3rd instar larvae. Mortality was recorded 72 hours after treatment. Feeding damages were also recorded using a scale of 0-100%.

[5] = test system: Boll Weevil (Anthonomus grandis); experiment: Boll weevil microtiter plate diet test; assay type: in vivo; settings: 120 h, sprayed onto insect diet with eggs, egg and larval mortality after 5 days, read-out: mortality in comparison with untreated controls
Protocol: B.6 Boll Weevil (Anthonomus grandis)
For evaluating control of boll weevil (Anthonomus grandis) the test unit consisted of 96-well-microtiter plates containing an insect diet and 5-10 A. grandis eggs.
The compounds were formulated using a solution containing 75% v/v water and 25% v/v DMSO. Different concentrations of formulated compounds were sprayed onto the insect diet at 5 μl, using a custom built micro atomizer, at two replications.
After application, microtiter plates were incubated at about 25±1° C. and about 75±5% relative humidity for 5 days. Egg and larval mortality was then visually assessed.

[6] = test system: Vetch Aphid (Megoura viciae); experiment: Vetch aphid broad bean leaf disk test; assay type: in vivo; settings: foliar, 120 h, sprayed onto broad bean leaf disks, adult aphids, 5 days, read-out: mortality in comparison with untreated controls
Protocol: B.4 Vetch Aphid (Megoura viciae)
For evaluating control of vetch aphid (Megoura viciae) through contact or systemic means the test unit consisted of 24-well-microtiter plates containing broad bean leaf disks.
The compounds were formulated using a solution containing 75% v/v water and 25% v/v DMSO. Different concentrations of formulated compounds were sprayed onto the leaf disks at 2.5 μl, using a custom built micro atomizer, at two replications.
After application, the leaf disks were air-dried and 5-8 adult aphids placed on the leaf disks inside the microtiter plate wells. The aphids were then allowed to suck on the treated leaf disks and incubated at about 23±1° C. and about 50±5% relative humidity for 5 days. Aphid mortality and fecundity was then visually assessed.

[7] = test system: Orchid Thrips (Dichromothrips Corbetti); experiment: Orchid thrips floral-immersion test; assay type: in vivo; settings: orchid petals dipped, adult thrips, 72 hours after treatment, read-out: mortality in comparison with untreated controls
Protocol: B.7 Orchid Thrips (Dichromothrips Corbetti)
Dichromothrips corbetti adults used for bioassay were obtained from a colony maintained continuously under laboratory conditions. For testing purposes, the test compound is diluted in a 1:1 mixture of acetone:water (vol:vol), plus Kinetic HV at a rate of 0.01% v/v.
Thrips potency of each compound was evaluated by using a floral-immersion technique. All petals of individual, intact orchid flowers were dipped into treatment solution and allowed to dry in Petri dishes. Treated petals were placed into individual resealable plastic along with about 20 adult thrips. All test arenas were held under continuous light and a temperature of about 28° C. for duration of the assay. After 3 days, the numbers of live thrips were counted on each petal. The percent mortality was recorded 72 hours after treatment.

O=C(NCC(F)(F)F)N/N=C/c1ccc(C2=NSC(c3cc(Cl)c(Cl)c(Cl)c3)(C(F)(F)F)C2)c2ccccc12 (stereo not drawn) [Compound 1-1, 1-[(E)-[4-[5-(3,4,5-trichlorophenyl)-5-(trifluoromethyl)-4H-isothiazol-3-yl]-1-naphthyl]methyleneamino]-3-(2,2,2-trifluoroethyl)urea]
≥ 75%: mortality at 2500 ppm [1] | mortality at 2500 ppm [2] | mortality at 2500 ppm [3] | mortality at 500 ppm [4] | mortality at 2500 ppm [5]

O=C(NCC1CC(F)(F)C1)c1ccc(C2=NSC(c3cc(Cl)c(Cl)c(Cl)c3)(C(F)(F)F)C2)c2ccccc12 (stereo not drawn) [Compound 2-1, N-[(3,3-difluorocyclobutyl)methyl]-4-[5-(3,4,5-trichlorophenyl)-5-(trifluoromethyl)-4H-isothiazol-3-yl]naphthalene-1-carboxamide]
≥ 75%: mortality at 2500 ppm [1] | mortality at 2500 ppm [6] | mortality at 2500 ppm [2] | mortality at 2500 ppm [3] | mortality at 500 ppm [4] | mortality at 2500 ppm [5] | mortality at 500 ppm [7]
